According to US10285794B2, “Hernia repair device and methods” (priority 2016, dated 2019):

What was measured:
[1] = system: myofibroblast (scar cell) formation; test: TGFβ-induced myofibroblast formation (expression of αSMA, calponin and collagen); format: cell-based; conditions: hallmarks of myofibroblasts
Description: Therapeutic options to treat excessive scarring are limited and most are not proven to be effective. Salinomycin is a novel small molecule that blocks myofibroblast (scar cell) formation.

[2] = system: myofibroblast function (cellular contraction); format: cell-based
Description: These novel studies highlight the potential of salinomycin to serve as the basis for new anti-scarring agents.

[3] = system: human mesenchymal stem cells, human fibroblasts and fibroblasts from mouse, cat and pig; test: cell culture studies of myofibroblast formation and function; format: cell-based
[4] = system: peri-implant capsular scarring; test: silicone discs impregnated with salinomycin placed submuscular in mice, Masson's trichrome staining; format: in vivo, mouse
Description: Salinomycin can also be used effectively as a small molecule coating on silicone or temporary dressings such as PermeaDerm. […] In this study, silicone discs were impregnated with salinomycin or a control solvent and placed submuscular in mice. Surrounding tissue was harvested at 16 weeks and tissue sections were stained with Masson's trichrome.

[5] = rabbit study with cutaneous injection (toxicity, irritation, skin sensitization); format: in vivo
[6] = system: Gram-positive bacteria, including MRSA, MRSE and Mycobacterium tuberculosis; conditions: cited from earlier work
fungi such as Candida = conditions: cited from earlier work
Gram-negative bacteria = conditions: cited from earlier work

Question: Which “ability of TGFβ to induce expression of αSMA, calponin and collagen” value [1] does the source give for `CC[C@@H](C(=O)[C@@H](C)[C@@H](O)[C@H](C)[C@@H]1O[C@@H]([C@@H](CC)C(=O)O)CC[C@@H]1C)[C@H]1O[C@]2(C=C[C@@H](O)[C@]3(CC[C@@](C)([C@H]4CC[C@](O)(CC)[C@H](C)O4)O3)O2)[C@H](C)C[C@@H]1C` [Salinomycin] here?
Answer: potently blocks

Question: What about the “myofibroblast function (cellular contraction)” value [2] of the same compound?
Answer: effectively blocks

Question: What about the viability [2] of the same compound?
Answer: without affecting viability

Question: And the “doses that block myofibroblast formation and function” value [3]?
Answer: 50 to 200 nM

Question: What about the peri-implant capsular scarring ([4]; silicone implants impregnated with 1 micromolar coating solution, mouse) of the same compound?
Answer: dramatically reduce

Question: And the “scar formation (capsule thickness)” value ([4]; submuscular silicone discs in mice, tissue harvested at 16 weeks, Masson's trichrome)?
Answer: significantly reduced scar formation

Question: What about the irritation ([5]; in vivo) of the same compound?
Answer: non-irritating

Question: What about the “reactivity (signs of erythema or edema)” value ([5]; in vivo) of the same compound?
Answer: non-reactive

Question: And the skin sensitization ([5]; in vivo)?
Answer: do not cause skin sensitization

Question: And the toxicity ([5]; low doses required for anti-scarring activity, cutaneous injection)?
Answer: non toxic

Question: What about the “antimicrobial activity against Gram-positive bacteria” value [6] of the same compound?
Answer: high antimicrobial activity

Question: What about the activity against fungi (fungi such as Candida) of the same compound?
Answer: inactive

Question: What about the “activity against Gram-negative bacteria” value (Gram-negative bacteria) of the same compound?
Answer: inactive
